Measurements published in patent publication US7273863B1, “Benzophenones as inhibitors of reverse transcriptase” (SmithKline Beecham Corporation, priority 1999, dated 2007).

Experiments:
Type in all cases: cell-based
[1] = tested on: isogenic HIV-1 RT mutant virus K103N/L1001; test: HeLa cell assay (HIV-LTR β-galactosidase reporter); settings: Human immunodeficiency virus 1, HeLa, read-out: IC50 (nM) Range
How it was run: (§1)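 HeLa-CD4-LTR-β-gal cells, seeded overnight, were infected with isogenic recombinant HXB2 RT-mutant virus (50 to 70 total RLUs per well, DEAE-dextran) for 1.5 to 2 hours. Five-fold compound titrations (2 μM to 1 pM final, 0.1% DMSO) followed, with 72 h at 37° C. IC50 is chemiluminescent β-gal signal inhibition versus untreated controls.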

[2] = tested on: isogenic HIV-1 RT mutant virus K101E; test: HeLa cell assay (HIV-LTR β-galactosidase reporter); settings: Human immunodeficiency virus 1, HeLa, read-out: IC50 (nM) Range
How it was run: as §1

[3] = tested on: isogenic HIV-1 RT mutant virus G190E; test: HeLa cell assay (HIV-LTR β-galactosidase reporter); settings: Human immunodeficiency virus 1, HeLa, read-out: IC50 (nM) Range
How it was run: as §1

[4] = tested on: isogenic HIV-1 RT mutant virus Y188C; test: HeLa cell assay (HIV-LTR β-galactosidase reporter); settings: Human immunodeficiency virus 1, HeLa, read-out: IC50 (nM) Range
How it was run: as §1

[5] = tested on: isogenic HIV-1 RT mutant virus E138K; test: HeLa cell assay (HIV-LTR β-galactosidase reporter); settings: Human immunodeficiency virus 1, HeLa, read-out: IC50 (nM) Range
How it was run: as §1

[6] = tested on: isogenic HIV-1 RT mutant virus V106A; test: HeLa cell assay (HIV-LTR β-galactosidase reporter); settings: Human immunodeficiency virus 1, HeLa, read-out: IC50 (nM) Range
How it was run: as §1

HIV-2 = test: MT4 cell assay, antiviral HIV activity (propidium iodide); settings: Human immunodeficiency virus 2, Virus Type HIV-2, read-out: IC50 (nM) Range

Compound | IC50 [1] [nM] | IC50 [2] [nM] | IC50 [3] [nM] | IC50 [4] [nM] | IC50 [5] [nM] | IC50 [6] [nM] | IC50 (HIV-2) [nM]
Cc1cc(S(N)(=O)=O)ccc1NC(=O)COc1ccc(Cl)cc1C(=O)c1cc(F)cc(F)c1 [Compound 62] | < 10 | < 10 | < 10 | < 10 | < 10 | 11 to 100 | 1000 to 3000
Cc1cc(S(N)(=O)=O)ccc1NC(=O)COc1ccc(Cl)cc1C(=O)c1cc(F)cc(C(F)(F)F)c1 [Compound 78] | < 10 | < 10 | < 10 | < 10 | < 10 | 11 to 100 | 
Cc1cc2nc[nH]c2cc1NC(=O)COc1ccc(Cl)cc1C(=O)c1cc(F)cc(C(F)(F)F)c1 [Compound 239] | < 10 | < 10 | < 10 | < 10 | < 10 | 11 to 100 | 
Cc1cc(OCCCS(N)(=O)=O)ccc1NC(=O)COc1ccc(Cl)cc1C(=O)c1cc(F)cc(C(F)(F)F)c1 [Compound 257] | < 10 | < 10 | < 10 | < 10 | < 10 | 11 to 100 | 
Cc1cc2cn[nH]c2cc1NC(=O)COc1ccc(Cl)cc1C(=O)c1cccc(C#N)c1 [Compound 453] |  | < 10 |  | < 10 |  | 101 to 1000 | 
Cc1cc(S(N)(=O)=O)ccc1NC(=O)COc1ccc(Cl)cc1C(=O)c1cccc(C#N)c1 [Compound 448] | < 10 | < 10 | < 10 | < 10 | < 10 | 11 to 100 | 1000 to 3000
